These results are taken from paper PMC7607171, “Optimized low‐dose combinatorial drug treatment boosts selectivity and efficacy of colorectal carcinoma treatment” (Molecular Oncology, 2020).

The conditions of data set [1]: 0-24h, oral, cited from earlier work.
Data set [2] in a line: Serum and intratumor drug concentration at experimental endpoint, SW620 model. Format: in vivo, mice. The conditions noted are these: for concentration at 1 h / Kp at 1 h: Swiss Nu/nu, mouse, oral; for concentration at 1 h: 1h post-treatment at endpoint (day 19); for Kp at 1 h: tumor vs serum, read-out: ratio tumor vs serum; for Kp at 1 h / ratio ODC vs single drug: SW620 model. On the procedure: At the experimental endpoint, plasma and tumors were collected 1h post‐treatment and part of the tumor tissue was used to determine the intratumor drug concentrations. Plasma and tumor samples were analyzed using the same LC‐MS/MS method used for drug determination in DBS. Before analysis, tumor tissues were homogenized in a 1 mL mixture of water/acetonitrile (30/70). Hundred uL of homogenates were transferred into new tubes and 50 µL of acetonitrile, as well as 50 µL of a mix of internal standards in MeOH were added. Tubes were vortexed and centrifuged for 10 min at 9,000 rpm. The supernatant (100 µL) was evaporated under nitrogen and reconstituted in 100 µL of acetonitrile with 0.1% formic acid/water with 0.1% formic acid (30/70). 10 µL was then injected into the LC‐MS/MS system. Plasma samples were spotted onto the same paper used for whole blood analysis and were extracted and analyzed using the same methods as used for DBS.

The nature of data set [3]: Pharmacokinetics, dried blood spot LC-MS/MS, mice with SW620 tumors. The class given is in vivo. The conditions noted are these: for Tmax / AUC(0-t) / Cmax: Swiss Nu/nu, mouse, whole blood (dried blood spot), po, 10 mg/kg, regorafenib 30, vemurafenib 75, GDC-0994 10 mg/kg; for AUC(0-t) / Cmax: whole blood, mean ± SD; for AUC(0-t): oral, read-out: AUC0-24h. The method, then:
The pharmacokinetic (PK) study was performed using the dried blood spot method. Mice were treated with CTRL, ODCs, and corresponding monotherapies as described above. To determine the disposition in blood in the first 24h, blood samples (5 µL/mouse) were collected from the tail vein (n = 4 mice) at 2h, 4h, 8h, and 24h time points and transferred onto paper (a filter paper 903 protein saver card from Whatman (MA, USA)). A disk with the entire spot was punched from the paper card and transferred to the HPLC vial tube. Hundred µL of MeOH containing a mix of internal standards was added, and the tube was vortex‐mixed for about 1 min before injecting 10 µL into the LC‐MS/MS system. The LC‐MS/MS system consisted of an API 4,000 triple quadrupole mass spectrometer (AB sciex, Concord, ON, Canada) controlled by analyst 1.6.1 software. The mass spectrometer was operated in the multiple reaction monitoring (MRM) mode with positive electrospray ionization. The instrument was coupled with an Agilent series 1100 (Waldbronn, Germany) LC system. Chromatography was performed on a Phenomenex Kinetex C18 analytical column (50 mm x 2.1 mm, 2.6 um; Torrance, CA, USA). The flow rate was 0.5 mL/min using gradient elution conditions. The method was fully validated before application to this pharmacokinetic study.

Data set [4] in a line: Clinical plasma pharmacokinetics in patients, plasma concentration limit calculation. Format: in vivo. The conditions noted are these: average plasma concentration calculated from AUC0-24h in patients. On the procedure: To select for clinically relevant doses, the clinically attainable drug concentration measured in the blood plasma of patients after treatment is used to calculate the concentration limit for in vitro experiments. […] The average drug concentration is calculated from the AUC0–24h and is implemented as the plasma concentration limit (PCL) which drug dose selection must remain below for in vitro experiments. If a drug is FDA approved, the AUC0–24h selected is the one corresponding to the recommended dose in clinical practice. If a drug is in clinical trials, the AUC0–24h selected is the one corresponding to the maximum tolerated dose in early stage clinical trials. Note, experiments were conducted with the most current PCL calculated from the AUC0–24h information available at the start of experiments (December 2017), see Table S4.

A further data set relates to SW620 tumors. As to the kind of experiment: Subcutaneous xenograft tumor growth. The class given is in vivo, Swiss nu/nu mice. The method, then:
All procedures including animal use were performed in accordance with the Institutional Ethical Committee of Animal Care in Geneva and the Swiss Cantonal Veterinary Office (Authorization number GE‐136‐19). Briefly, female and male Swiss nu/nu mice aged 6–8 weeks were obtained from Charles River (Écully, France). For subcutaneous xenografts mice were inoculated in the left flank with 5x10^6 DLD1 or SW620 cells suspended in 100 µL of cell culture medium, supplemented with 1% FBS. Treatment was initiated when palpable tumors had formed (approximately 30 mm^3) on day 4 for DLD1 and day 5 for the SW620 model.
Treatment was initiated once tumor growth was confirmed with bioluminescence measurements. Drugs were administered through oral gavage based on average body weight of the males (100 µL/mouse) and females (80 µL/mouse) at various concentrations, see Tables S10 and S11.
Solution A: step (1) 30% PEG 400 + 5% propylene glycol + 0.5% Tween 80 and (2) 64.5% sterile H2O. Solution B: step (1) 10% DMSO, (2) 30% PEG 300 + 5% Tween 80 and (3) 55% sterile H2O. Vemurafenib was prepared 2x concentrated (half or three/sixth of total solution), and the remaining drugs were prepared 6x concentrated (one/sixth of total solution), after which drugs were diluted to prepare 1x drug concentrations for the ODC or single drugs using the other drugs or complete solvent solutions without drugs for lower concentrations. FOLFOX was administered as 6 mg/kg oxaliplatin two hours before administration of 90 mg/kg leucovorin and 50 mg/kg (DLD1) or 25 mg/kg (SW620) 5‐fluorouracil at day 1 and a repeat of 5‐fluorouracil dosing on day 2.
The Bliss independence model can be used to evaluate the drug interaction potential of a drug mixture. The model is based on the principle that each drug has an independent drug mechanism of action, but all contribute to a common result (e.g., cell death or tumor volume inhibition). The model is based on the probability theory and requires the drug activity of each drug at the selected dose to predict the inhibition rate (IR) at additive doses. For in vivo tumor volume results, we predicted the IR based on the fraction of tumor volume remaining after single‐drug treatment of each of the drugs vs 100% CTRL (F1,2,3,4), using the following formula: IR = […].

[5] abbreviates: given as part of SW620-specific ODC.
[6] abbreviates: GDC-0994 10 mg/kg, Exp 6, Day 20.
Where [7] appears, read: GDC-0994 10 mg/kg, Exp 8, Day 19.
The mark [8] stands for this setting: GDC-0994 20 mg/kg, Exp 4, Day 22.

Where “and” joins values, the source holds several entries; their conditions need not be identical. Equal entries are not always repeated. Where two headings read alike, the source gives them in different places.

The term AUC denotes the area under the concentration-time curve, a measure of exposure. On to `Cn1c(=O)n(-c2ccc(C(C)(C)C#N)cc2)c2c3cc(-c4cnc5ccccc5c4)ccc3ncc21` [BEZ-235], for which the area under the curve (AUC) in data set [1] (400 mg/kg once daily, ref 16) is 741.3 ng·h/mL; in data set [1] (400 mg/kg once daily, ref 17), 1404.4 ng·h/mL.

By Tmax is commonly meant the time at which the peak concentration occurs. In general, Cmax refers to the maximum level reached in the sampled fluid or tissue. Take `Cn1nccc1Nc1nccc(-c2ccn([C@H](CO)c3ccc(Cl)c(F)c3)c(=O)c2)n1` [GDC-0994, (S)-1-(1-(4-Chloro-3-fluorophenyl)-2-hydroxyethyl)-4-(2-((1-methyl-1H-pyrazol-5-yl)amino)pyrimidin-4-yl)pyridin-2(1H)-one]: the concentration at 1 h in data set [2] (serum, 10 mg/kg, as part of ODC, regorafenib 30, selumetinib 0.2, vemurafenib 75, GDC-0994 10 mg/kg, read-out: concentration serum) came out at 19400 ± 9390 ng/mL; in data set [2] (serum, 10 mg/kg, single drug, regorafenib 30, selumetinib 0.2, vemurafenib 75, GDC-0994 10 mg/kg, read-out: concentration serum), 15900 ± 9070 ng/mL; in data set [2] (tumor (SW620), as part of ODC, SW620 tumor, doses as E164, read-out: concentration tumor), 5560 ± 3000 ng/g; in data set [2] (tumor (SW620), single drug, SW620 tumor, doses as E164, read-out: concentration tumor), 12700 ± 2870 ng/g. Further, the results for the Kp at 1 h in data set [2] (as part of ODC) and in data set [2] (single drug) were 0.29 and 0.8, respectively. In addition, the “ratio ODC vs single drug” value in data set [2] (serum) came to 1.22; in data set [2] (tumor), 0.44. Moreover, the Tmax in data set [3] (setting [5]) and in data set [3] (mono) was 2 h each time. For the same molecule, the results for the AUC(0-t) in data set [3] (setting [5]) and in data set [3] (mono) were 45000 ± 9090 ng·h/mL and 31600 ± 4740 ng·h/mL, respectively. The Cmax in data set [3] (setting [5]) came out at 6610 ± 1110 ng/mL; in data set [3] (mono), 6090 ± 1930 ng/mL. The “increase of AUC as part of the ODC vs single-drug treatment” value in data set [3] (mice bearing SW620 tumors, AUC0-24h) is listed as 1.4 x. Also, the “PCL (plasma concentration limit)” value in data set [4] is 2.02 µM and 2.0 µM. Besides, the “% CTRL (tumor volume)” value in the data set with SW620 tumors (setting [6]) was 56 33 15 % CTRL; in the data set with SW620 tumors (setting [7]) it was 56 18 7 % CTRL; in the data set with SW620 tumors (setting [8]), 62 31 22 % CTRL. The Volume with SW620 tumors (setting [6]) is on record as 290 170 76 mm^3; in the data set on SW620 tumors (setting [7]), 354 114 46 mm^3; in the data set with SW620 tumors (setting [8]) it was 301 148 105 mm^3.

Regarding `CC1(COc2ccc3c(c2)ncn3-c2ccc3cccc(N4CCC(N)CC4)c3n2)COC1` [crenolanib], the “PCL (plasma concentration limit)” value in data set [4] was 0.43 µM and 0.4 µM. The values for the AUC in data set [1] (100 mg/kg twice daily) and in data set [1] (200 mg/kg once daily) were 3200 ng·h/mL and 4610 ng·h/mL, respectively.

With `Clc1ccc(Nc2nnc(Cc3ccncc3)c3ccccc23)cc1` [vatalanib], the “PCL (plasma concentration limit)” value in data set [4] was 8.31 µM and 8.3 µM. Also, the area under the curve (AUC) was 52900 ng·h/mL in data set [1] (1,000 mg/kg once daily) and 69200 ng·h/mL in data set [1] (1,200 mg/kg once daily).

For the molecule `O=C(CCCCCCC(=O)Nc1ccccc1)NO` [vorinostat], the “PCL (plasma concentration limit)” value in data set [4] is 0.19 µM and 0.2 µM. Besides, the AUC in data set [1] (200 mg/kg twice daily) is 4.61 µM·h.
